From patent US11260083B2, “Compositions and methods for treating and preventing graft versus host disease” (The Regents of the University of Michigan, priority 2016, dated 2022)

How the values were obtained:
[1] = test system: donor T cells, Treg cells and macrophages in the intestine; assay: Flow cytometry of intestinal cellular contents after allo-BMT; type: in vivo, mouse
Source text: To analyze immunophenotype surface markers, lymphocytes contained in the IEC fraction or spleen were harvested, stained using recommended dilutions indicated by manufacturer product sheets and gated on CD4-conjugated PerCP/Cy5.5 (Clone: GK1.5) or CD8-conjugated APC (Clone: 53-6.7) and configurations of the following per mouse in duplicate: CD69-PE (Clone: H1.2F3), CD62L-PE (Clone: MEL-14), CD25-PE (Clone: 3C7), CD44-PerCP/Cy5.5 (Clone: IM7), CD44-APC (Clone: IM7), FoxP3-APC (Clone: FJK-16s). Stained cells were then analyzed with an Accuri C6 Flow Cytometer (BD Biosciences). IECs were stained with CD326-conjugated APC (Clone: G8.8) and DAPI and sorted to >98% purity using a FACSAria III (BD Biosciences) gating on live cells.
The total numbers of CD45.1+ cells recovered from the intestinal lamina propria were not different between vehicle- and butyrate-treated allo-BMT recipients. By contrast, intestinal infiltration of donor CD4+ and CD8+ T cells and activated T cells (CD69+ or CD44hi) was decreased in animals that received local intragastric butyrate administration (FIG. 4a). However, the ratio of donor Treg cells to effector T cells was not different in the intestines of these animals (FIG. 4b). […] However, no difference in the total number of donor macrophages in the intestine of allogenenic recipients that were treated with either vehicle or butyrate was observed (FIG. 4c).

intestinal organoids = assay: Intestinal organoid culture with butyrate; type: cell-based, mouse
Method: The potential mechanisms that contribute to butyrate-induced protection from severe GVHD were explored. Because (a) butyrate is decreased in IECs, (b) administration of butyrate mitigated GI GVHD independent of Treg cells, but (c) improved junction integrity, it was explored whether butyrate had direct effects on protecting IECs from allo-T cell mediated damage and conditioning. IECs were treated ex vivo with vehicle or butyrate for 24 hours irradiation (6 Gy) or no-irradition, followed by 24 hours of additional incubation with butyrate was performed. […] The ability of butyrate-treated IECs to withstand damage mediated by alloreactive T cells was determined by isolating and culturing primary IECs with butyrate or vehicle control, overnight. The pre-treated IECs were next co-cultured with primed allogeneic CD8+ T cells, in the absence of butyrate. […] Because butyrate is a primary energy source for IECs 1-13, it was next determined whether butyrate enhances survival and growth of IECs in vitro. To this end, intestinal organoids were cultured in the presence or absence of butyrate. […] Next, the impact of butyrate on IEC junctional function in the organoid cultures was confirmed by determining the mRNA expression of claudins (FIG. 5E).

CD326+ IECs = assay: IEC viability assay with or without irradiation (6 Gy); type: cell-based, mouse; settings: ex vivo
Method: Primary intestinal epithelial cells (IECs) were obtained from C57BL/6J mice as described previously (Lefrangois, L. & Lycke, N. Isolation of Mouse Small Intestinal Intraepithelial Lymphocytes, Peyer's Patch, and Lamina Propria Cells. (John Wiley & Sons, Inc., 2001)). Briefly, luminal contents of intestine were flushed with CMF solution. Intestine was then minced into 0.5 cm pieces, washed with CMF four times, transferred to CMF/FBS/EDTA, and incubated at 37° C. for 60 minutes (shaking tubes every 10 minutes). Supernatant containing IECs was then transferred through […] cell filter followed by incubation on ice for 10 minutes to allow sedimentation. Supernatant was again transferred through a 75 μM cell filter. CD326+ IECs were next purified utilizing either FACS or anti-APC magnetic microbeads (Miltenyi Biotec Ltd., Auburn, Calif.) and an autoMACs (Miltenyi Biotec). […]
The potential mechanisms that contribute to butyrate-induced protection from severe GVHD were explored. […] The ability of butyrate-treated IECs to withstand damage mediated by alloreactive T cells was determined by isolating and culturing primary IECs with butyrate or vehicle control, overnight. […] Because butyrate is a primary energy source for IECs 1-13, it was next determined whether butyrate enhances survival and growth of IECs in vitro. […]

## CCCC(=O)[O-].[Na+] [butyrate, sodium butyrate]
[1]; 21 days after allo-BMT
  ratio of donor Treg cells to effector T cells in the intestines: not different
[1]; 21 days after allo-BMT, intragastric butyrate
  intestinal infiltration of donor CD4+ and CD8+ T cells and activated T cells (CD69+ or CD44hi): decreased
[1]; 21 days after allo-BMT, vehicle vs butyrate
  total numbers of CD45.1+ cells recovered from the intestinal lamina propria: not different
[1]; allogeneic recipients, vehicle vs butyrate
  total number of donor macrophages in the intestine: no difference
Intestinal organoids; culture in the presence of butyrate
  organoid size: significantly increased
Intestinal organoids; organoids cultured with butyrate
  mRNA expression of claudins (Cldn1, Cldn5, Cldn6, Cldn10, Cldn11, Cldn13, Cldn14, Cldn17, Cldn18): significantly increased
CD326+ IECs; irradiation 6 Gy
  irradiation-induced apoptosis of IECs: conferred protection
CD326+ IECs; no irradiation
  toxicity to IECs: not toxic
